Source: PMC5770468, “Cardiac glycoside/aglycones inhibit HIV-1 gene expression by a mechanism requiring MEK1/2-ERK1/2 signaling” (Scientific Reports, 2018)
Read-outs that look alike come from different tables or passages of the source.

Tests used:
[1] = test system: HIV-1 Gag-GFP expression; assay: Recovery of HIV-1 Gag-GFP expression by pathway inhibitors in the presence of CSs, HeLa rtTA-HIV(Gag-GFP) cells; type: cell-based; settings: 12 μM U0126; 5.5 μM Selumetinib; 10 μM LY294002; 5 µM KB-R7943; CSs at ~IC80
Method: Figure 5 Effect of modulating NKA expression, [Ca^2+]i, and PI3K-AKT on HIV-1 gene expression. Depletion of the NKA perturbs HIV-1 RNA processing (n ≥ 3, mean, s.e.m.). HeLa rtTA-HIV(Gag-GFP) cells were transduced with two shRNAs (E6/E10) to knockdown expression of the NKA α1 subunit and their effect on HIV-1 gene expression analyzed. After positive selection of cells with puromycin for 24–48 h, HIV-1 expression was Dox induced for 20 h, and cells harvested for analyses. Total mRNA (and protein) was isolated from cells, reverse transcribed, and analyzed by qRT-PCR and data normalized to β-actin (a,c). Results are shown relative to Stuffer (+). (a) Expression levels of NKA α1 mRNAs assayed by qRT-PCR. (b) HIV-1 Gag expression assayed by p24^CA ELISA of cell lysates (40 μg). (c) Accumulation of HIV-1 US (black), SS (white), and MS (gray) mRNAs quantified by qRT-PCR. (d–g) CSs suppress HIV-1 gene expression independent of intracellular Ca^2+ flux/signaling and PI3K-AKT activation. HeLa rtTA-HIV(Gag-GFP) cells were pre-treated with either a chelator of [Ca^2+]i (5 µM BAPTA-AM, [Ca2+]ii), inhibitors of NCX Ca^2+-entry (5 µM KB-R7943, NCXi) or PI3K (10 μM LY294002, PI3Ki), or untreated (DMSO, no pathway inhibitor) for ~2 h prior to treatment with ~IC80s of CSs or DMSO for 4 h, and Dox induced for ~20 h. The pathway used by a CS to inhibit HIV-1 expression was determined by monitoring for recovery of Gag-GFP expression by measuring GFP fluorescence in cell lysates (and initially by plate scans of live/fixed cells, Supplementary Fig. S7a and S8c). (d) Levels of [Ca^2+]i measured by Fura Red AM™ (n ≥ 4, mean, s.e.m.). (e–f) Quantification of Gag-GFP expression by reducing SDS-PAGE in lysates (35 μg) of cells which were pre-treated with/without KB-R7943 (n ≥ 3–4 mean, s.e.m.). […] (g) Graph quantitating Gag expression by p24^CA ELISA in lysates of cells (35 μg) that were pre-treated with/without LY294002 (n ≥ 3, mean, s.e.m.). Statistical comparisons in (a–g) were performed as illustrated (black/gray dashed lines) or described in Methods.
Figure 6 CSs control HIV-1 gene expression through intracellular signaling. HeLa rtTA-HIV(Gag-GFP) cells were pre-treated with/without pathway inhibitor overnight (~15 h) and treated with ~IC80s of CSs. […] Graphs quantifying the activation level (phospho/total protein) of each MAP/MAPK by western blot. […] The signaling pathway(s) used by a CS to inhibit HIV-1 expression was determined by detecting Gag-GFP fluorescence in cell lysates (~35 μg) by reducing SDS-PAGE after pre-treatment of cells with a MEK1/2 (12 μM U0126, white), p38α/β/β2 (15 μM SB203580/p38i, gray), or JNK1/2/3 (1.25 μM SP600125/JNKi, hatched) inhibitor (n ≥ 5–7, 4–8, and 3–7, resp., mean, s.e.m.). […]

[2] = test system: HIV-1 (Gag) gene expression; assay: HIV-1 (Gag) gene expression in HeLa rtTA-HIV-ΔMls cells, p24CA ELISA dose response; type: cell-based, HIV-1 (LAI); settings: for IC50: read-out: IC50 (nM) HeLa rtTA-HIV-ΔMls
Method: Drug/compounds were tested for effects on HIV-1 gene expression using inducible Tet-ON HIV-1 cell lines [HeLa rtTA-HIV-ΔMls or rtTA-HIV(Gag-GFP)] containing a HIV-1 (LAI) provirus activatable by Dox or tetracycline transactivator (tTA)[69]. The rtTA-HIV-ΔMls provirus was modified and used as previously reported[9]–[11],[70]. The rtTA-HIV(Gag-GFP) provirus was generated by deletion of the PR and RT coding regions within pol and insertion of GFP to the 3′ of gag, creating GFP fused to the C-terminal of Gag. After 4 h of drug/compound treatment, HIV-1 gene expression was activated with Dox (2 μg/mL) or tTA (described below). Equal concentrations of DMSO were present in each experiment. After ~20 h, cells and media were harvested to monitor the effects of drug/compound treatments as described below. HIV-1 gene expression was quantified via p24^CA ELISA or monitoring Gag-GFP fluorescence in cells as described below. In parallel, cell viability of treatments were assessed by XTT assay (Sigma-Aldrich, #TOX2).
Drug/compounds were purchased from Sigma (Digoxin, #D6003; Digitoxin, #D5878; Digoxigenin, #D9026; Digitoxigenin, #D9404; Ouabain, #O3125; Bufalin, #S961175; Cinobufagin, #C1272; and Anisomycin, #A9789) and derivatives of convallatoxin were synthesized from C. Lingwood’s lab of the Hospital for Sick Children (convallatoxin, peruvoside, RIDK-34, -36, -20, -21, -27, and -28). […] Recombinant human EGF was from Invitrogen (#PHG0314). Chemical structures were drawn in ChemSketch (ACD/Labs).
To monitor HIV-1 gene expression or replication, Gag release into cell culture supernatants were assayed by ELISA using a p24^CA antigen capture assay kit (AIDS & Cancer Virus Program, NCI-Frederick, Frederick, MD USA). Media harvested from HIV clinical isolates were diluted ~10 fold (or as necessary) prior to performing this assay. For analysis of HIV-1 and SR protein expression (and phosphorylation states with calf intestinal alkaline phosphatase treatments), cells were lysed and analyzed by western blot as previously outlined. Phosphatase inhibitors (e.g. 10 mM sodium fluoride, 2 mM sodium orthovanadate) were added to solutions requiring phospho protein analyses. An anti-chicken NKA antibody (α6F, #a6F–c, Developmental Studies Hybridoma Bank, The University of Iowa, contributed by Douglas M. Fambrough, The Johns Hopkins University) was used as specified to detect NKA α1- and β1-subunits across species. […] Activation of MAPKs was determined by western blot quantitation and calculation of phospho/total protein levels. […] Images were exported as TIF files for assembly, rotation, and equal brightness/contrast adjustments in ImageJ or Microsoft Powerpoint. Some lanes were cropped and rearranged from the same blot/gel as indicated. In representative gel/blot sets, samples were electrophoresed from the same experiment as controls, resolved simultaneously on identically cast gel(s), transferred to same PVDF (by either wet electrophoretic or by Bio-Rad Trans-Blot® Turbo Transfer System), and detected at same time. Marked locations of molecular weight (MW) standards are shown on the left as a reference. […] SUnSET analysis of total cellular protein synthesis. HeLa rtTA-HIV-ΔMls cells were cultured in the presence/absence of compound and pathway inhibitor (if any) and Dox induced for ~24 h as already described, then treated with puromycin (10 μg/mL, Sigma-Aldrich, #P8833) for 30 min to label nascent proteins prior to harvest. As control, 10 µM of cycloheximide (Sigma-Aldrich, #C4849) was added to some cells prior to puromycin treatment. Cells were subsequently washed, whole cell lysates prepared, and proteins quantified by western blot using an anti-puromycin antibody (EMD Millipore, #anti-12D10) as described above. Transfection of plasmid DNA into cells.

[3] = test system: HeLa rtTA-HIV-ΔMls cells; assay: In vitro therapeutic index (CC20/IC50) in HeLa rtTA-HIV-ΔMls cells; type: cell-based, human
From the text: Without median toxic dose (TD50) and half-maximal effective concentration (EC50) data available to calculate TIs (in vivo) from HIV patients treated with CSs, we determined the following TIs for each cell type treated with a CS (summarized in Supplementary Table S1): in vitro TIs from HeLa rtTA-HIV-ΔMls cells using CC20/IC50 (instead of CC50/IC50), in vitro TIs from 24ST1NLESG cells using CC50/IC50, and ex vivo TIs from HIV-infected PBMCs using CC50/IC50 (at day 14 of culture approximated from available cell viability trends for CC50s of Supplementary Fig. S13 and inferred near maximal IC50s).
Supplementary Table S1. Comparison of the in vitro (IVTI) and ex vivo therapeutic indices (EVTIs) of CSs and their impact on the expression of essential HIV-1 proteins.
Notes: data for CC20, CC50, and IC50s for each drug/compound were estimated from dose response curves in Figures 1-2, Supplementary Table S1, Supplementary Figures S2, S5, and S13, and Wong et al.
">" means the estimate has not been accurately determined but is greater than the highest concentration […]
"( )" indicates preliminary data that was not shown. aCC20 instead of CC50 was estimated from dose response curves and used for calculation of IVTIs. bCells were treated at ~IC90of a CS.
(1 picture or pasted object on this page, not shown here)

[4] = Human immunodeficiency virus 1, HeLa
[5] = Human immunodeficiency virus 1, HeLa, read-out: IC90, HIV-1 (Gag) gene expression

## Cn1cnc2c(F)c(Nc3ccc(Br)cc3Cl)c(C(=O)NOCCO)cc21 [Selumetinib]
[1]
  reversal of CS inhibition of HIV-1 Gag-GFP expression by pathway inhibitor pre-treatment: partially rescuing

## CC(=O)O[C@H]1[C@H]2O[C@]23[C@@H]2CC[C@@H]4C[C@@H](O)CC[C@]4(C)[C@H]2CC[C@]3(C)[C@H]1c1ccc(=O)oc1 [Cinobufagin]
[2]; [4]
  IC50: 24 nM
[2]; [5]
  IC90: 0.04 µM
[2]; Human immunodeficiency virus 1, HeLa, read-out: ~IC80 (approximate concentration used in experiments)
  IC80: ~0.04 µM
[2]; Human immunodeficiency virus 1, HeLa, read-out: ~IC90 (approximate concentration used in experiments)
  IC90: ~0.04 µM
[2]; cell based assays (HeLa rtTA-HIV-ΔMls)
  better anti-HIV-1 activity than digoxin: 1.9 fold
[3]
  better in vitro TI than digoxin: 2.3 fold

## N#CC(=C(/N)Sc1ccccc1N)/C(C#N)=C(/N)Sc1ccccc1N [U0126]
[1]
  reversal of CS inhibition of HIV-1 Gag-GFP expression by pathway inhibitor pre-treatment: partially restored

## C[C@@H]1O[C@@H](O[C@H]2CC[C@]3(C=O)[C@H]4CC[C@]5(C)[C@@H](C6=CC(=O)OC6)CC[C@]5(O)[C@@H]4CC[C@]3(O)C2)[C@H](O)[C@H](O)[C@H]1O [Convallatoxin]
[2]
  better anti-HIV-1 activity than digoxin: 3.8 fold
[2]; Human immunodeficiency virus 1, HeLa, HIV-1 Gag expression, p24CA ELISA, 4 h drug then Dox ~20 h
  IC50: 12 nM
[2]; Human immunodeficiency virus 1, HeLa rtTA-HIV-ΔMls cells, read-out: IC90, HIV-1 (Gag) gene expression
  IC90: 0.024 µM
[3]
  better in vitro TI than digoxin: 6.8 fold

## O=c1cc(N2CCOCC2)oc2c(-c3ccccc3)cccc12 [LY294002]
[1]
  reversal of CS inhibition of HIV-1 Gag-GFP expression by pathway inhibitor pre-treatment: did not reverse

## CC1OC(OC2CC(O)C3(CO)C4C(O)CC5(C)C(C(=CC(=O)O)CO)CCC5(O)C4CCC3(O)C2)C(O)C(O)C1O (stereo not drawn) [RIDK-21]
[2]; HeLa rtTA-HIV-ΔMls cells
  anti-HIV-1 activity: reduced/no anti-HIV-1 activity
[2]; HIV-1 Gag expression, p24CA ELISA, 4 h drug then Dox ~20 h
  IC50: > 100 nM

## CO[C@H]1[C@H](O)[C@H](O[C@H]2CC[C@@]3(C=O)[C@H](CC[C@@H]4[C@@H]3CC[C@]3(C)[C@@H](C5=CC(=O)OC5)CC[C@]43O)C2)O[C@@H](C)[C@@H]1O [Peruvoside]
[2]; HeLa rtTA-HIV-ΔMls cells
  reduced potency relative to convallatoxin: 10 fold
[2]; [4]
  IC50: 80 nM
[2]; [5]
  IC90: 0.25 µM
